Data as given in patent US10370343B2, “[6,6] Fused bicyclic HDAC8 inhibitors” (FORMA Therapeutics, Inc., priority 2015, dated 2019).

These compounds were tested against T1, Recombinant N-terminal GST tag full-length human HDAC8 (Homo sapiens, UniProt Q9BY41) (assay: HDAC8 probe binding assay, time resolved fluorescence (TRF) format). Conditions: compounds grouped by IC50 range (Table 2).
T1 construct: Recombinant N-terminal GST tag full-length human HDAC8; purchased SignalChem H90-30G-1000; host or cells: baculovirus in Sf9 insect cells
T1 sequence (Q9BY41 1-377): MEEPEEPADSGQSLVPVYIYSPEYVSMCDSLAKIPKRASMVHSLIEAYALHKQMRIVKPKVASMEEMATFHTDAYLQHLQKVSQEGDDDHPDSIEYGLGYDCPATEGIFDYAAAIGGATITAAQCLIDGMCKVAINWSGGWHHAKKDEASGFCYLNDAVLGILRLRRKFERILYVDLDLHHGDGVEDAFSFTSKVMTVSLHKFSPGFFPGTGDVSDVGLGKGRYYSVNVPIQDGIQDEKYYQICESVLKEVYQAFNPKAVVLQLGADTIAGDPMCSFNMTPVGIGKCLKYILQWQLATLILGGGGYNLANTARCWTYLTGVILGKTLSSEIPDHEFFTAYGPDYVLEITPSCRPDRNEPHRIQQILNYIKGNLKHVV
Protocol: The HDAC8 probe binding assay was performed using a time resolved fluorescence (TRF) assay format. Recombinant N-terminal GST tag full-length human HDAC8 was expressed and purified from baculovirus in Sf9 insect cells (SignalChem, #[…]-1000). […] Plates were incubated for 16 hours at room temperature before time resolved fluorescence was read on the Envision (Excitation at 340 nm, and Emission at 485 nm and 535 nm, Perkin Elmer). Data from HDAC8 Assays were reported as percent inhibition (inh) compared with control wells based on the following equation: % inh=1-((FLU-AveLow)/(AveHigh-AveLow)) where FLU=measured time resolved fluorescence. AveLow=average time resolved fluorescence of no enzyme control (n=32). AveHigh=average time resolved fluorescence of DMSO control (n=32). IC50 values were determined by curve fitting of the standard 4 parameter logistic fitting algorithm included in the Activity Base software package: IDBS XE Designer Model205. Data is fitted using the Levenburg Marquardt algorithm. Ranges of IC50 values for compounds of the invention are disclosed in Table 2: Table 2. provides the compounds arranged according to […] determined in a time resolved fluorescence (TRF) assay. The compounds are separated into four groups: […]

| Structure (SMILES) | IC50 |
| --- | --- |
| O=C(NO)c1ccc2c(c1)N(Cc1ncn(-c3ccccc3)n1)C(=O)CO2 [Compound I-193, N-hydroxy-3-oxo-4-((1-phenyl-1H-1,2,4-triazol-3-yl)methyl)-3,4-dihydro-2H-benzo[b][1,4]oxazine-6-carboxamide] | 25 to 100 nM |
| O=C(NO)c1ccc2c(c1)N(CC1CCN(c3ccccc3)CC1)C(=O)CO2 [Compound I-198, N-hydroxy-3-oxo-4-((1-phenylpiperidin-4-yl)methyl)-3,4-dihydro-2H-benzo[b][1,4]oxazine-6-carboxamide] | 25 to 100 nM |
| O=C(NO)c1ccc2c(c1)N(Cc1cnc3c(c1)OCCO3)C(=O)CO2 [Compound I-173, 4-((2,3-dihydro-[1,4]dioxino[2,3-b]pyridin-7-yl)methyl)-N-hydroxy-3-oxo-3,4-dihydro-2H-benzo[b][1,4]oxazine-6-carboxamide] | 25 to 100 nM |
| Cc1ccn2cc(CN3C(=O)COc4ccc(C(=O)NO)cc43)nc2c1 [Compound I-364, N-hydroxy-4-((7-methylimidazo[1,2-a]pyridin-2-yl)methyl)-3-oxo-3,4-dihydro-2H-benzo[b][1,4]oxazine-6-carboxamide] | 25 to 100 nM |
| CC1(C)Oc2ccc(C(=O)NO)cc2N(Cc2c(Cl)cccc2Cl)C1=O [Compound I-299, 4-(2,6-dichlorobenzyl)-N-hydroxy-2,2-dimethyl-3-oxo-3,4-dihydro-2H-benzo[b][1,4]oxazine-6-carboxamide] | 25 to 100 nM |
| CC1(C)Oc2ccc(C(=O)NO)cc2N(Cc2nc3ccccc3s2)C1=O [Compound I-295, 4-(benzo[d]thiazol-2-ylmethyl)-N-hydroxy-2,2-dimethyl-3-oxo-3,4-dihydro-2H-benzo[b][1,4]oxazine-6-carboxamide] | 25 to 100 nM |
| O=C(NO)c1ccc2c(c1)N(Cc1cccc3ccccc13)C(=O)CO2 [Compound I-230, N-hydroxy-4-(naphthalen-1-ylmethyl)-3-oxo-3,4-dihydro-2H-benzo[b][1,4]oxazine-6-carboxamide] | 25 to 100 nM |
| CC1(C)Oc2ccc(C(=O)NO)cc2N(Cc2cccc(OC(F)(F)F)c2)C1=O [Compound I-319, N-hydroxy-2,2-dimethyl-3-oxo-4-(3-(trifluoromethoxy)benzyl)-3,4-dihydro-2H-benzo[b][1,4]oxazine-6-carboxamide] | 25 to 100 nM |
| O=C(NO)c1ccc2c(c1)N(CC1CCc3ccccc3O1)C(=O)CO2 (racemic) [Compound I-184, (+/−)-4-(chroman-2-ylmethyl)-N-hydroxy-3-oxo-3,4-dihydro-2H-benzo[b][1,4]oxazine-6-carboxamide] | 25 to 100 nM |
| CC1(C)Oc2ccc(C(=O)NO)cc2N(Cc2nc(-c3ccccc3)sc2Cl)C1=O [Compound I-308, 4-((5-chloro-2-phenylthiazol-4-yl)methyl)-N-hydroxy-2,2-dimethyl-3-oxo-3,4-dihydro-2H-benzo[b][1,4]oxazine-6-carboxamide] | 25 to 100 nM |
| COc1ccc(CN2CC(C(=O)NC3CCOCC3)Oc3ccc(C(=O)NO)cc32)cc1 (stereo not shown) [Compound I-172, N6-hydroxy-4-(4-methoxybenzyl)-N2-(tetrahydro-2H-pyran-4-yl)-3,4-dihydro-2H-benzo[b][1,4]oxazine-2,6-dicarboxamide] | 25 to 100 nM |
| O=C(NO)c1ccc2c(c1)N(Cc1cnc(-c3ccccc3)o1)C(=O)CO2 [Compound I-178, N-hydroxy-3-oxo-4-((2-phenyloxazol-5-yl)methyl)-3,4-dihydro-2H-benzo[b][1,4]oxazine-6-carboxamide] | ≤ 25 nM |
| O=C(NO)c1ccc2c(c1)N(Cc1cccc(Oc3ccc(Cl)cc3)c1)C(=O)CO2 [Compound I-226, 4-(3-(4-chlorophenoxy)benzyl)-N-hydroxy-3-oxo-3,4-dihydro-2H-benzo[b][1,4]oxazine-6-carboxamide] | ≤ 25 nM |
| O=C(NO)c1ccc2c(c1)N(Cc1nc3ccc(C(F)(F)F)nc3s1)C(=O)CO2 [Compound I-212, N-hydroxy-3-oxo-4-((5-(trifluoromethyl)thiazolo [5,4-b]pyridin-2-yl)methyl)-3,4-dihydro-2H-benzo[b][1,4]oxazine-6-carboxamide] | 25 to 100 nM |
| CC(C)NC(=O)c1ccc(CN2C(=O)COc3ccc(C(=O)NO)cc32)cc1 [Compound I-369, N-hydroxy-4-(4-(isopropylcarbamoyl)benzyl)-3-oxo-3,4-dihydro-2H-benzo[b][1,4]oxazine-6-carboxamide] | 25 to 100 nM |
| O=C(NO)c1ccc2c(c1)N(CC1COc3ccccc3O1)C(=O)CO2 (racemic) [Compound I-185, (+/−)-4-((2,3-dihydrobenzo[b][1,4]dioxin-2-yl)methyl)-N-hydroxy-3-oxo-3,4-dihydro-2H-benzo[b][1,4]oxazine-6-carboxamide] | ≤ 25 nM |
| O=C(NO)c1ccc2c(c1)N(Cc1cc(Cl)cc(Cl)c1)C(=O)CO2 [Compound I-355, 4-(3,5-dichlorobenzyl)-N-hydroxy-3-oxo-3,4-dihydro-2H-benzo[b][1,4]oxazine-6-carboxamide] | ≤ 25 nM |
| O=C(NO)c1ccc2c(c1)N(Cc1cnn(-c3ccccc3)n1)C(=O)CO2 [Compound I-180, N-hydroxy-3-oxo-4-((2-phenyl-2H-1,2,3-triazol-4-yl)methyl)-3,4-dihydro-2H-benzo[b][1,4]oxazine-6-carboxamide] | ≤ 25 nM |
| CC1(C)Oc2ccc(C(=O)NO)cc2N(Cc2cc(-c3ccccc3)on2)C1=O [Compound I-320, N-hydroxy-2,2-dimethyl-3-oxo-4-((5-phenylisoxazol-3-yl)methyl)-3,4-dihydro-2H-benzo[b][1,4]oxazine-6-carboxamide] | ≤ 25 nM |
| O=C(NO)c1ccc2c(c1)N(Cc1ccc(N3CCCC3=O)cc1)C(=O)CO2 [Compound I-188, N-hydroxy-3-oxo-4-(4-(2-oxopyrrolidin-1-yl)benzyl)-3,4-dihydro-2H-benzo[b][1,4]oxazine-6-carboxamide] | 25 to 100 nM |

Further lines, results first:

| IC50 | Structure (SMILES) |
| --- | --- |
| ≤ 25 nM | O=C(NO)c1ccc2c(c1)N(Cc1ccc(Cl)c(C(F)(F)F)c1)C(=O)CO2 [Compound I-345, 4-(4-chloro-3-(trifluorornethyl)benzyl)-N-hydroxy-3-oxo-3,4-dihydro-2H-benzo[b][1,4]oxazine-6-carboxamide] |
| ≤ 25 nM | O=C(NO)c1ccc2c(c1)N(Cc1nc3ccc(Cl)cc3o1)C(=O)CO2 [Compound I-287, 4-((6-chlorobenzo[d]oxazol-2-yl)methyl)-N-hydroxy-3-oxo-3,4-dihydro-2H-benzo[b][1,4]oxazine-6-carboxamide] |
| ≤ 25 nM | O=C(NO)c1ccc2c(c1)N(Cc1ccc3cccnc3c1)C(=O)CO2 [Compound I-335, N-hydroxy-3-oxo-4-(quinolin-ylmethyl)-3,4-dihydro-2H-benzo[b][1,4]oxazine-6-carboxamide] |
| ≤ 25 nM | O=C(NO)c1ccc2c(c1)N(Cc1cccc(Cl)c1F)C(=O)CO2 [Compound I-340, 4-(3-chloro-2-fluorobenzyl)-N-hydroxy-3-oxo-3,4-dihydro-2H-benzo[b][1,4]oxazine-6-carboxamide] |
| ≤ 25 nM | COc1cc(CN2C(=O)COc3ccc(C(=O)NO)cc32)ccc1Cl [Compound I-350, 4-(4-chloro-3-methoxybenzyl)-N-hydroxy-3-oxo-3,4-dihydro-2H-benzo[b][1,4]oxazine-6-carboxamide] |
| ≤ 25 nM | O=C(NO)c1ccc2c(c1)N(Cc1ccc(-n3cncn3)cc1)C(=O)CO2 [Compound I-175, 4-(4-(1H-1,2,4-triazol-1-yl)benzyl)-N-hydroxy-3-oxo-3,4-dihydro-2H-benzo[b][1,4]oxazine-6-carboxamide] |
| ≤ 25 nM | O=C(NO)c1ccc2c(c1)N(Cc1ccc(C(F)(F)F)c(F)c1)C(=O)CO2 [Compound I-266, 4-(3-fluoro-4-(trifluoromethyl)benzyl)-N-hydroxy-3-oxo-3,4-dihydro-2H-benzo[b][1,4]oxazine-6-carboxamide] |
| ≤ 25 nM | CC(C)Oc1ccc(CN2C(=O)COc3ccc(C(=O)NO)cc32)cc1 [Compound I-330, N-hydroxy-4-(4-isopropoxybenzyl)-3-oxo-3,4-dihydro-2H-benzo[b][1,4]oxazine-6-carboxamide] |
| ≤ 25 nM | COc1cnc2sc(CN3C(=O)COc4ccc(C(=O)NO)cc43)nc2c1 [Compound I-208, N-hydroxy-4-((6-methoxythiazolo[5,4-b]pyridin-2-yl)methyl)-3-oxo-3,4-dihydro-2H-benzo[b][1,4]oxazine-6-carboxamide] |
| ≤ 25 nM | N#Cc1ccc(CN2C(=O)COc3ccc(C(=O)NO)cc32)cc1 [Compound I-237, 4-(4-cyanobenzyl)-N-hydroxy-3-oxo-3,4-dihydro-2H-benzo[b][1,4]oxazine-6-carboxamide] |
| ≤ 25 nM | COc1ccc(CN2C(=O)COc3ccc(C(=O)NO)cc32)cn1 [Compound I-332, N-hydroxy-4-((6-methoxypyridin-3-yl)methyl)-3-oxo-3,4-dihydro-2H-benzo[b][1,4]oxazine-6-carboxamide] |
